In the assay the test system is control and GR^ECKO mice. The assay can be described thus: Wnt inhibitor (LGK974) treatment in nondiabetic and diabetic control and GR^ECKO mice. The format is in vivo, mouse. How it is done:
(FIG. 5A) Schematic diagram showing the treatment protocol of Wnt inhibition in diabetic control and GR^ECKO mice. (FIG. 5B) Physiological parameters including body weight, blood glucose and kidney weight/body weight were analyzed. N=6 biologically independent mice/group combined from two experiments. (FIG. 5C) Masson trichrome, Sirius red and PAS staining as well as immunohistochemical analysis of β-catenin levels in the kidneys of wnti-treated diabetic control and GR^ECKO mice. Representative images are shown; original magnification 300×. Relative area of fibrosis (%) and relative collagen deposition (%) were measured using the ImageJ program. N=8 biologically independent mice/group combined from three experiments were analyzed. Scale bar 50 μm. Data are mean SEM. For all panels one-way ANOVA with Tukey post-test was used for analysis of statistical significance. Significance—*p<0.05, **p<0.01, ***p<0.001.
Physiological parameters including body weight, blood glucose, and kidney weight/body weight are shown. n=7 biologically independent mice/group combined from two experiments were analyzed. Data are mean±SEM. One-way Anova with Tukey multiple comparison post hoc test was used to calculate statistical significance.
FIGS. 27A-27B Histological analysis of kidneys from Wnt inhibitor-treated nondiabetic control and GR^ECKO mice. (FIG. 27A) Masson trichrome staining (MITS) and Sirius red staining in Wnt inhibitor-treated nondiabetic control and GR^ECKO mice. Representative images are shown; original magnification 200×. Area of fibrosis (%) and relative collagen deposition (%) were measured using the ImageJ program. N=5 biologically independent mice/group were analyzed. Data are mean±SEM. Scale bar 50 μm. (FIG. 27B) Immunohistochemical analysis of -catenin expression in the kidneys of Wnt inhibitor-treated nondiabetic control and GR^ECKO mice. Scale bar 30 μm. n=6 biologically independent mice/group combined from two independent experiments were analyzed. Representative images are shown; original magnification 300×. One-way Anova with Tukey multiple comparison post hoc test was used to calculate statistical significance. Significance—*p<0.05, **p<0.01, ***p<0.001.
Immunohistochemical analysis of Snail1, PPAR. and HIF1. expression in the Wnti-treated and untreated control, and GR^ECKO mice. Scale bar 50 μm. n=7 biologically independent mice/group combined from three independent experiments were analyzed. Representative images are shown; original magnification 200×.
Immunofluorescence analysis of α-SMA/CD31/DAPI and E-cadherin/α-SMA/DAPI in kidneys of Wnt inhibitor-treated nondiabetic and diabetic mice. Top panel: α-SMA FITC labelled, CD31 rhodamine labelled and DAPI blue; Lower panel: E-Cadherin FITC-green labelled, α-SMA red rhodamine labelled and DAPI blue. Representative images are shown; original magnification 400×. Scale bar 50 μm. n=6 biologically independent mice/group combined from three independent experiments were analyzed. NC: non-diabetic control; DC: diabetic control; D: diabetic.
To determine whether Wnt inhibition could mitigate the renal fibrosis observed in diabetic GR^ECKO mice, a cohort of animals was treated with LGK974. At the age of 8 weeks, control and GR^ECKO mice were injected with STZ 50 mg/kg for five consecutive days. Sixteen weeks after injection, LGK974 was administered by oral gavage for eight additional weeks (FIG. 5A).
Animal Experimentation. All experiments were performed according to a protocol approved by the Institutional Animal Care and Use Committee at the Yale University School of Medicine and were in accordance with the National Institute of Health (NIH) Guidelines for the Care of Laboratory Animals Mice were housed at an ambient temperature of 68-79° F. with a humidity that ranged between 30%-70%. […]

[1] abbreviates: nondiabetic control mice or nondiabetic GR^ECKO, compared to untreated nondiabetic controls.

Consider `Cc1cc(-c2ncc(CC(=O)Nc3ccc(-c4cnccn4)cn3)cc2C)ccn1` [LGK974], for which the “level of EMT (E-cadherin/αSMA double positive cells)” value (control and diabetic GR^ECKO mice) was “significantly reduced”. For the same compound, where the note is “diabetic GR^ECKO and diabetic control mice”, the kidney weight entry was “significant reduction”. In addition, under “diabetic GR^ECKO mice”, the “EndMT (CD31/αSMA double positive cells)” value is reported as “less pronounced”; the “relative area of fibrosis” value was “less pronounced, though still significant”; the relative collagen deposition entry is “less pronounced, though still significant”; the tubular damage result is recorded as “less pronounced, though still significant”. For the setting “diabetic control mice”, the “EndMT (CD31/αSMA double positive cells)” value is reported as “significantly suppressed”, the “relative area of fibrosis” value is recorded as “clearly improved”, the relative collagen deposition result was “clearly improved” and the tubular damage entry is given as “clearly improved”. For the setting “kidneys of diabetic GR^ECKO”, the “expression of HIF1α” value is “suppressed”, the “expression of Snail1” value was “suppressed” and the “level of PPARα” value is “significantly increased”. Moreover, under setting [1], the renal fibrogenic phenotype entry is “did not result in any remarkable change” and the β-catenin level entry was “did not result in any remarkable change”.

These data come from US20250179167A1, “IL-6 INHIBITOR AS TREATMENT FOR NEPHROPATHY” (YALE UNIVERSITY, priority 2022, published 2025).
